Assay results reported in patent publication US5998433A, “Condensed compounds, their production and use” (Takeda Chemical Industries, Ltd., priority 1994, dated 1999).
pIC50: −log10 of the molar value. Where a name gives a salt, the structure may show the parent alone.

What was measured:
[1] = test system: Aspergillus niger IFO 4414; assay: Antifungal activity (agar plate dilution method), organism I; assay type: cell-based; settings: IFO4414, 35° C., 20 hours, pH 7.0
Protocol: (§1) Determination of Antifungal Activity (Agar Plate Dilution Method)
(§2) RPMI 1640 (Gibco BRL) was dissolved in 0.3 M MOPS buffer, pH 7.0, to obtain a 2-fold dilution; this solution was filtered to remove germ cells (0.45 μm). Separately, 1.4% agar (Wako Pure Chemical Industries) was thermally sterilized (121° C., 15 minutes). This agar was mixed with an equal amount of the above 2-fold diluted RPMI 1640 (0.15 M MOPS, pH 7.0). To 9.9 ml of this RPMI 1640 (0.15 M MOPS, pH 7.0)-0.7% agar medium, 0.1 ml of a 100-fold diluted DMSO solution of the test drug was added; this mixture was prepared as an agar plate in a petri dish 9 cm in diameter. The drug (dissolved in DMSO to 100-fold dilution) was used in a series of 2-fold dilutions of a starting concentration of 64 μg/ml in the agar medium. For drug-free control, an agar medium containing 0.1 ml of DMSO or […] of sterile water was prepared. An inoculum of frozen cells was diluted with physiological saline and spot inoculated onto the agar medium (0.005 ml; 700-15,000 cfu) using a microplanter (Sakuma Seisakusho), followed by cultivation at 35° C. for 20 hours. Antifungal activity was assessed macroscopically; the minimum concentration for complete growth inhibition was expressed as MIC (minimum growth inhibitory concentration).

[2] = test system: Candida utilis IFO 0619; assay: Antifungal activity (agar plate dilution method), organism G; assay type: cell-based; settings: Williopsis jadinii, IFO0619, 35° C., 20 hours, pH 7.0
Protocol: as §1, §2

[3] = test system: Aspergillus fumigatus IFO 6344; assay: Antifungal activity (agar plate dilution method), organism H; assay type: cell-based; settings: IFO6344, 35° C., 20 hours, pH 7.0
Protocol: as §1, §2

[4] = test system: Candida albicans IFO 0583; assay: Antifungal activity (agar plate dilution method), organism A; assay type: cell-based; settings: IFO0583, 35° C., 20 hours, pH 7.0
Protocol: as §1, §2

[5] = test system: Cholesterogenesis in Rat Liver; assay: Inhibition of cholesterogenesis in rat liver ([14C] acetic acid incorporation); assay type: in vivo, male Sprague-Dawley rats; settings: by stomach tube, lower values indicate higher inhibitory activity
Protocol: Inhibition of Cholesterogenesis in Rat Liver
An aqueous solution of the test drug was administered, by a stomach tube, to male Sprague-Dawley rats at 5 weeks of age; 1 hour later, [^14 C] acetic acid was intravenously administered at a dose of 10 μCi per animal. One hour later, the animals were bled, livers were excised and a portion of liver was treated with a chloroform:methanol mixture to extract lipids. After the lipid fraction was saponified, sterol was extracted with petroleum ether, precipitated using digitonin and the radioactivity in the precipitate fraction was determined using a scintillation counter. The control group orally received 0.5% methyl cellulose solution alone.
The results are shown in Table 3 (lower percent control values indicate higher cholesterol synthesis inhibitory activity).

[6] = test system: Candida tropicalis IFO 10241; assay: Antifungal activity (agar plate dilution method), organism C; assay type: cell-based; settings: IFO10241, 35° C., 20 hours, pH 7.0
Protocol: as §1, §2

[7] = test system: Candida tropicalis IFO 0587; assay: Antifungal activity (agar plate dilution method), organism B; assay type: cell-based; settings: IFO0587, 35° C., 20 hours, pH 7.0
Protocol: as §1, §2

[8] = molecular target: T1, 2,3-oxidosqualene cyclase (Rattus norvegicus, UniProt P48450); assay: Inhibition of 2,3-oxidosqualene cyclase activity (crude rat liver enzyme, lanosterol production, GC/Mass); assay type: biochemical; settings: 37° C., 20 minutes, pH 7.5; read-out: Oxidosqualene Cyclase Inhibitory Activity IC50
T1 construct: The supernatant was thus obtained as a crude enzyme solution; from tissue; host or cells: liver of male SD rat, microsome fraction solubilised with n-dodecyl beta-D-maltoside
T1 sequence (P48450 1-733): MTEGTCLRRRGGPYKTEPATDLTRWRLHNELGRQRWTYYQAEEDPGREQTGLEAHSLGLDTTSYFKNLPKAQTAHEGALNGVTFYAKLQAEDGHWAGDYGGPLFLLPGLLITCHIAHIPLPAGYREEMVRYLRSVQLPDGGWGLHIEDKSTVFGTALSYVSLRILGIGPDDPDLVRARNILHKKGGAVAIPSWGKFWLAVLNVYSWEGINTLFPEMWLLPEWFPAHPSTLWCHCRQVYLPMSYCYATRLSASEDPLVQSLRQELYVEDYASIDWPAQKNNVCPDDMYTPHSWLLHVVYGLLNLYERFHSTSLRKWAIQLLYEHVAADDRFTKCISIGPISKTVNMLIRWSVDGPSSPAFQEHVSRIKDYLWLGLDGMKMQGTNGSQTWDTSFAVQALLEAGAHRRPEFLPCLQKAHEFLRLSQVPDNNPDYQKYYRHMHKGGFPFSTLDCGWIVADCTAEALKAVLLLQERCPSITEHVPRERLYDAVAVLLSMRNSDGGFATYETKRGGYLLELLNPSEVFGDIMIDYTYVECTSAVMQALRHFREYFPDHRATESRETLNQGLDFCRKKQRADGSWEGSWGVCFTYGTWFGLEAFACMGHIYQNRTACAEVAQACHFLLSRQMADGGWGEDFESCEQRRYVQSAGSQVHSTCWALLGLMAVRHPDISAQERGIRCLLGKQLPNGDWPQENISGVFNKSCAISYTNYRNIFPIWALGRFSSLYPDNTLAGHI
Protocol: Inhibition of 2,3-oxidosqualene Cyclase Activity
1) Preparation of Crude Rat Enzyme
After a male SD rat (6 weeks of age) was sacrificed by bleeding, the liver was excised. About 50 g of the liver was washed with ice-cold physiological saline and homogenized in 75 ml of ice-cold buffer [100 mM potassium phosphate buffer (pH 7.4), 15 mM nicotinamide, 2 mM MgCl2 ] and centrifuged at 10,000×g for 20 minutes (4° C.). The resulting supernatant was further centrifuged at […] for 90 minutes (4° C.) and the resulting sediment was suspended in ice-cold 100 mM potassium phosphate buffer (pH 7.4), and again centrifuged at 105,000×g for 90 minutes (4° C.). […]
To 200 μl of a reaction mixture containing […] 2,3-oxidosqualene, 50 mM Tris-HCl (pH 7.5), 0.5 mM EDTA, 0.5 mM dithiothreitol, 0.1% Tween 80, 0.25% n-dodecyl β-D-maltoside and the test drug, the crude enzyme (protein content 40 μg) was added and incubated at 37° C. for 20 minutes. […] The resulting lanosterol was quantitated with the cholestane as internal standard (gas chromatograph: Yokogawa-Hewlett-Packard HP-5890J; column: Yokogawa-Hewlett-Packard ULTRA-1, 0.32 mm dia., 0.52μ, 10 m; mass analyzer: JEOL JMS-DX303/DA5000). […]

[9] = test system: Candida krusei IFO 1162; assay: Antifungal activity (agar plate dilution method), organism F; assay type: cell-based; settings: Pichia kudriavzevii, IFO1162, 35° C., 20 hours, pH 7.0
Protocol: as §1, §2

[10] = test system: Candida krusei IFO 0584; assay: Antifungal activity (agar plate dilution method), organism E; assay type: cell-based; settings: Pichia kudriavzevii, IFO0584, 35° C., 20 hours, pH 7.0
Protocol: as §1, §2

[11] = test system: Candida glabrata IFO 0622; assay: Antifungal activity (agar plate dilution method), organism D; assay type: cell-based; settings: Nakaseomyces glabratus, IFO0622, 35° C., 20 hours, pH 7.0
Protocol: as §1, §2

[12] = test system: LDL receptor; assay: Low-density lipoprotein (LDL) receptor-increasing activity in HepG2 cells; assay type: cell-based, human; settings: 20 hours, mean ± SD (n = 3)
Protocol: Determination of Low-density Lipoprotein (LDL) Receptor-increasing Activity
Human hepatoma cell line HepG2 was seeded to 96-multiwell plates (10^4 cells/well) and cultured for 5 days in Dulbecco's minimal essential medium (DMEM) medium supplemented with 10% inactivated fetal bovine serum, followed by 20 hours of pretreatment in 100 μl of DMEM medium containing 10% lipoprotein-deficient fetal bovine serum and the test compound. After being washed with Dulbecco's phosphate-buffered saline (PBS), the cells were fixed in 4% formalin at room temperature for 1 hour. Three hundreds μl of PBS containing 3% bovine serum albumin was added; the mixture was kept standing at 5° C. overnight, after which the PBS was replaced with 50 μl of PBS containing both 5 μg/ml anti-LDL receptor monoclonal antibody (Oncogene Science) and 0.5% bovine serum albumin, followed by incubation at room temperature for 2 hours. After the cells were washed with PBS containing both 0.05% Triton X-100 and 0.5% bovine serum albumin (Triton-containing PBS), 50 μl of 400-fold diluted peroxidase-labeled anti-mouse antibody (produced by BIO-RAD) was added, followed by incubation at room temperature for 1 hour. After the cells were washed with Triton-containing PBS, peroxidase activity was determined using a Peroxidase Assay Kit A (Sumitomo Bakelite Co., Ltd.). LDL receptor-inducing activity was calculated by comparing the peroxidase activity with control activity; data were analyzed for significant difference by Student's t-test. Blank determination was performed in the absence of the anti-LDL receptor monoclonal antibody.

MIC [1] [µg/mL] | MIC [2] [µg/mL] | MIC [3] [µg/mL] | MIC [4] [µg/mL] | MIC [6] [µg/mL] | MIC [7] [µg/mL] | MIC [9] [µg/mL] | MIC [10] [µg/mL] | MIC [11] [µg/mL] | SMILES | Cholesterol synthesis in rat liver, % of control ([5]; 30 mg/kg) [% Control] | pIC50 [8] | LDL Receptor Expression (% of Control) ([12]; 0.2 μM) | LDL Receptor Expression (% of Control) ([12]; 2 μM, *p < 0.05) | LDL Receptor Expression (% of Control) ([12]; 20 μM, *p < 0.05) | Cholesterol synthesis in rat liver, % of control ([5]; 0.3 mg/kg) [% Control] | Cholesterol synthesis in rat liver, % of control ([5]; 1.0 mg/kg) [% Control]
8 | 2 | 8 | 16 | 64 | 16 | 8 | 8 | 32 | CN(C)Cc1cc2c(o1)CN(C(=O)CCCCCc1ccccc1)CC2 [Example 5, 1-(2-dimethylaminomethyl-5,7-dihydro-4H-furo[2,3-c]pyridin-6-yl)-6-phenylhexan-1-one hydrochloride] | 48.9 | 7.82 |  |  |  |  | 
 |  |  |  |  |  |  |  |  | CN(C)Cc1cc2c(o1)CN(C(=O)c1ccc(C(=O)c3ccccc3)cc1)CC2 [Example 11, N,N-dimethyl-[6-(4-benzoylbenzoyl)-4,5,6,7-tetrahydrofuro[2,3-c]pyridin-2-ylmethyl]amine hydrochloride] |  | 7.08 | 113.3 ± 10.6 % of Control | 143.1 ± 19.7 % of Control | 148.9 ± 20.5 % of Control | 52.6 | 23.3
